In patent publication US20110319431A1, “Bis Aromatic Compounds for Use as LTC4 Synthase Inhibitors” (BIOLIPOX AB, priority 2009, published 2011) one finds inhibition and IC50 data, which are given here for 32 compounds.

SMILES strings stand for the structures.

The first experiment addresses T1, Recombinant human LTC4 synthase (Homo sapiens, UniProt Q16873).
T1 construct: made in house; host or cells: Pichia pastoris
T1 sequence (Q16873 1-150): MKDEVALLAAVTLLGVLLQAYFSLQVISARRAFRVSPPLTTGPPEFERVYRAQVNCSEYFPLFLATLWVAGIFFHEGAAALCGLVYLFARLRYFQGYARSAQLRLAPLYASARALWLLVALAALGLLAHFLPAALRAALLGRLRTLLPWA
The experiment in a line: In vitro LTC4 synthase assay (LTA4 to LTC4, HTRF detection). To be noted: 5 min; total concentration of title compounds in the assay 10 μM. The format is biochemical. How it is done:
In the assay, LTC4 synthase catalyses the reaction where the substrate LTA4 is converted to LTC4. Recombinant human LTC4 synthase is expressed in Piccia pastoralis and the purified enzyme is dissolved in 25 mM tris-buffer pH 7.8 supplemented with 0.1 mM glutathione (GSH) and stored at −80° C. The assay is performed in phosphate buffered saline (PBS) pH 7.4 and 5 mM GSH in 384-well plates.
The following is added chronologically to each well:
1. 48 μL LTC4 synthase in PBS with 5 mM GSH. The total protein concentration in this solution is 0.5 μg/mL. 2. 1 μL inhibitor in DMSO (final concentration 10 μM). 3. Incubation of the plate at room temperature for 10 min. 4. 1 μL LTA4 (final concentration 2.5 μM). 5. Incubation of the plate at room temperature for 5 min. 6. 10 μL of the incubation mixture is analysed using homogenous time resolved fluorescent (HTRF) detection.
For orientation: In TR-FRET formats the signal depends on donor and acceptor labels being close together.
With `CN(c1ccc(Cl)cc1)c1ccc(C(=O)c2ccc(S(=O)(=O)c3ccc(Cl)cc3)c(C(=O)O)c2)cc1` [Example 3:2, 5-{4-[(4-Chlorophenyl)(methyl)amino]benzoyl}-2-(4-chlorophenylsulfonyl)benzoic acid], the inhibition at 10 µM stood at 98%. The same measure, in the same setting: under `CN(c1ccc(Cl)cc1)c1ccc(C(=O)c2ccc(Sc3cccc(Cl)c3)c(C(=O)O)c2)cc1` [Example 2:2, 5-{4-[(4-Chlorophenyl)(methyl)amino]benzoyl}-2-(3-chlorophenylsulfanyl)-benzoic acid] stands 98%. In the case of `CCCCCCSc1ccc(C(=O)c2ccc(N(C)c3ccc(Cl)cc3)cc2)cc1C(=O)O` [Example 2:1, 5-{4-[(4-Chlorophenyl)(methyl)amino]benzoyl}-2-(1-hexylsulfanyl)benzoic acid], the inhibition at 10 µM came out at 99%.

`CCCCCC[S+]([O-])c1ccc(C(=O)c2ccc(N(C)c3ccc(Cl)cc3)cc2)cc1C(=O)O` (centres unmarked) [Example 1:1, 5-{4-[(4-Chlorophenyl)(methyl)amino]benzoyl}-2-(1-hexylsulfinyl)benzoic acid]: the inhibition at 10 µM worked out at 100%. On to `CN(c1ccc(Cl)cc1)c1ccc(C(=O)c2ccc(Sc3ccc(F)c(F)c3)c(C(=O)O)c2)cc1` [2:3, 5-{4-[(4-Chlorophenyl)(methyl)amino]benzoyl}-2-(3,4-difluorophenyl-sulfanyl)benzoic acid], for which the inhibition at 10 µM stood at 96%. In the case of `CCCCCC[S+]([O-])c1ccc(C(=O)c2ncc(N(C)c3ccc(Cl)cc3)cn2)cc1C(=O)O` (centres unmarked) [Example 1:21, 5-(5-((4-Chlorophenyl)(methyl)amino)pyrimidine-2-carbonyl)-2-(1-hexylsulfinyl)-benzoic acid], the inhibition at 10 µM stood at 99%.

The same experiment, now with this note: Table 4, title compounds of Example 4.
For the compound `CN(c1ccc(Cl)cc1)c1ccc(C(=O)c2cc(Sc3ccc(F)c(F)c3)cc(C(=O)O)c2)cc1` [4:9, 3-{4-[(4-Chlorophenyl)(methyl)amino]benzoyl}-5-(3,4-difluorophenyl-sulfanyl)benzoic acid], the IC50 was determined as 0.088 µM. Turning to `CN(c1ccc(Cl)cc1)c1ccc(C(=O)c2cc(Sc3ccccc3)cc(C(=O)O)c2)nc1` [4:4, 3-{5-[(4-Chlorophenyl)(methyl)amino]picolinoyl}-5-phenylsulfanylbenzoic acid], the IC50 worked out at 0.135 µM. For `CCCCCC[S+]([O-])c1cc(C(=O)O)cc(C(=O)c2ccc(N(C)c3ccc(Cl)cc3)cn2)c1` (centres unmarked) [Example 4:2, 3-{5-[(4-Chlorophenyl)(methyl)amino]picolinoyl}-5-(1-hexylsulfinyl)-benzoic acid], the half-maximal inhibitory concentration (IC50) amounted to 0.404 µM. Consider `CCCCCCSc1cc(C(=O)O)cc(C(=O)c2ccc(N(C)c3ccc(Cl)cc3)cn2)c1` [4:3, 3-{5-[(4-Chlorophenyl)(methyl)amino]picolinoyl}-5-(1-hexyl)-sulfanylbenzoic acid], for which the IC50 was 0.215 µM. For the compound `CN(c1ccc(Cl)cc1)c1ccc(C(=O)c2cc(Sc3ccccc3)cc(C(=O)O)c2)cc1` [4:10, 3-{4-[(4-Chlorophenyl)(methyl)amino]benzoyl}-5-(phenysulfanyl)benzoic acid], the half-maximal inhibitory concentration (IC50) amounted to 0.175 µM.

The experiment is the same for the next values; noted with them: title compounds of the Examples.
Take `COc1cccc(Sc2ccc(C(=O)c3ccc(N(CC4CC4)c4ccc(Cl)cc4)cn3)cc2C(=O)O)c1` [2:19, 5-{5-[(4-Chlorophenyl)cyclopropylmethylamino]pyridine-2-carbonyl}-2-(3-methoxy-phenylsulfanyl)-benzoic acid]: the 50% inhibitory concentration (IC50) amounted to 0.081 µM. With `CN(c1ccc(Cl)cc1)c1ccc(C(=O)c2ccc(SCC34CCC(CC3O)C4(C)C)c(C(=O)O)c2)cc1` (centres unmarked) [2:4, 5-{4-[(4-Chlorophenyl)methylamino]benzoyl}-2-(2-hydroxy-7,7-dimethyl-bicyclo[2.2.1]-1-heptylmethylsulfanyl)benzoic acid], the half-maximal inhibitory concentration (IC50) turned out to be 0.13 µM.

As to `CN(c1ccc(Cl)cc1)c1ccc(C(=O)c2ccc(S(=O)(=O)c3ccc(Cl)cc3)c(C(=O)O)c2)cc1` [Example 3:2, 5-{4-[(4-Chlorophenyl)(methyl)amino]benzoyl}-2-(4-chlorophenylsulfonyl)benzoic acid], the IC50 turned out to be 0.635 µM.

Regarding `CN(c1ccc(Cl)cc1)c1ccc(C(=O)c2ccc(Sc3cccc(Cl)c3)c(C(=O)O)c2)cc1` [Example 2:2, 5-{4-[(4-Chlorophenyl)(methyl)amino]benzoyl}-2-(3-chlorophenylsulfanyl)-benzoic acid], the IC50 was 0.073 µM. With `O=C(c1ccc(Sc2ccc(F)c(F)c2)c(C(=O)O)c1)c1ccc(OCc2cccc(Cl)c2)cn1` [Example 2:21, 5-[5-(3-Chlorobenzyloxy)pyridine-2-carbonyl]-2-(3,4-difluorophenyl-sulfanyl)benzoic acid], the IC50 amounted to 0.119 µM. The same measure, in the same setting: the same measure for `CCCCCCSc1ccc(C(=O)c2ccc(N(C)c3ccc(Cl)cc3)cn2)cc1C(=O)O` [2:5]: 0.129 µM; for `CN(c1ccc(Cl)cc1)c1ccc(C(=O)c2cc(Sc3ccccc3)cc(C(=O)O)c2)nc1` [2:24, 3-{5-[(4-Chlorophenyl)methylamino]pyridine-2-carbonyl}-5-phenylsulfanyl-benzoic acid]: 0.135 µM. Turning to `O=C(c1ccc(Sc2ccc(F)c(F)c2)c(C(=O)O)c1)c1ccc(N(CC2CC2)c2ccc(Cl)cc2)cn1` [2:16, 5-{5-[(4-Chlorophenyl)cyclopropylmethylamino]pyridine-2-carbonyl}-2-(3,4-difluorophenylsulfanyl)benzoic acid], the 50% inhibitory concentration (IC50) worked out at 0.041 µM. Take `CCCCCCSc1ccc(C(=O)c2ccc(N(C)c3ccc(Cl)cc3)cc2)cc1C(=O)O` [Example 2:1, 5-{4-[(4-Chlorophenyl)(methyl)amino]benzoyl}-2-(1-hexylsulfanyl)benzoic acid]: the IC50 turned out to be 0.172 µM.

For the compound `COc1ccc(Sc2cc(C(=O)O)cc(C(=O)c3ccc(N(C)c4ccc(Cl)cc4)cc3)c2)cc1OC` [2:27, 3-(4-((4-Chlorophenyl)(methyl)amino)benzoyl)-5-(3,4-dimethoxyphenylsulfanyl)benzoic acid], the IC50 was 0.328 µM. Same read-out and setting: under `CN(c1ccc(Cl)cc1)c1ccc(C(=O)c2ccc([S+]([O-])CC34CCC(CC3O)C4(C)C)c(C(=O)O)c2)cc1` (centres unmarked) [1:10, 5-{4-[(4-Chlorophenyl)(methyl)amino]benzoyl}-2-[(2-hydroxy-7,7-dimethyl-bicyclo[2.2.1]-1-heptyl)methylsulfinyl]benzoic acid] stands 0.086 µM; under `CN(c1ccc(Cl)cc1)c1ccc(C(=O)c2ccc([S+]([O-])C34CC5CC(CC(C5)C3)C4)c(C(=O)O)c2)cc1` (centres unmarked) [1:6, 2-(1-Adamantylsulfinyl)-5-{4-[(4-chlorophenyl)methylamino]benzoyl}benzoic acid], 0.096 µM. For `CN(c1ccc(Cl)cc1)c1ccc(C(=O)c2ccc([S+]([O-])C3CCCC3)c(C(=O)O)c2)cc1` (centres unmarked) [1:4, 5-{4-[(4-Chlorophenyl)(methyl)amino]benzoyl}-2-(cyclopentylsulfinyl)benzoic acid], the IC50 was 0.161 µM. Take `CN(c1ccc(Cl)cc1)c1ccc(C(=O)c2cc(C(=O)O)cc([S+]([O-])c3ccc(F)c(F)c3)c2)cc1` (centres unmarked) [Example 1:19, 3-{4-[(4-Chlorophenyl)(methyl)amino]benzoyl}-5-(3,4-difluorophenylsulfinyl)-benzoic acid]: the IC50 came out at 0.212 µM.

`CCCCCC[S+]([O-])c1ccc(C(=O)c2ccc(N(CC3CC3)c3ccc(Cl)cc3)cn2)cc1C(=O)O` (centres unmarked) [1:16, 5-{5-[(4-Chlorophenyl)cyclopropylmethylamino]pyridine-2-carbonyl}-2-(1-hexyl-sulfinyl)benzoic acid]: the 50% inhibitory concentration (IC50) is 0.035 µM. Consider `CCCCCCSc1ccc(C(=O)c2ccc(N(CC3CC3)c3ccc(Cl)cc3)cn2)cc1C(=O)O` [2:15, 5-{5-[(4-Chlorophenyl)cyclopropylmethylamino]pyridine-2-carbonyl}-2-(1-hexylsulfanyl)benzoic acid], for which the IC50 came to 0.096 µM.

For the compound `CN(c1ccc(Cl)cc1)c1ccc(C(=O)c2cc(Sc3cccc(Cl)c3)cc(C(=O)O)c2)cc1` [2:26, 3-(4-((4-Chlorophenyl)(methyl)amino)benzoyl)-5-(3-chlorophenylsulfanyl)benzoic acid], the IC50 was determined as 0.165 µM. Regarding `O=C(c1ccc(Sc2ccccc2Cl)c(C(=O)O)c1)c1ccc(N(CC2CC2)c2ccc(Cl)cc2)cn1` [2:10, 5-{5-[(4-Chlorophenyl)cyclopropylmethylamino]pyridine-2-carbonyl}-2-(2-chlorophenylsulfanyl)benzoic acid], the concentration for half-maximal inhibition (IC50) came to 0.022 µM. `CN(c1ccc(Cl)cc1)c1ccc(C(=O)c2cc(Sc3ccc(F)c(F)c3)cc(C(=O)O)c2)cc1` [2:29, 3-(4-((4-Chlorophenyl)(methyl)amino)benzoyl)-5-(3,4-difluorophenylsulfanyl)benzoic acid]: the 50% inhibitory concentration (IC50) is 0.088 µM. For the compound `CCCCCC[S+]([O-])c1ccc(C(=O)c2ccc(N(C)c3ccc(Cl)cc3)cc2)cc1C(=O)O` (centres unmarked) [Example 1:1, 5-{4-[(4-Chlorophenyl)(methyl)amino]benzoyl}-2-(1-hexylsulfinyl)benzoic acid], the IC50 is 0.056 µM. Consider `COc1ccc(Sc2ccc(C(=O)c3ccc(N(CC4CC4)c4ccc(Cl)cc4)cn3)cc2C(=O)O)cc1` [2:20, 5-{5-[(4-Chlorophenyl)cyclopropylmethylamino]pyridine-2-carbonyl}-2-(4-methoxyphenylsulfanyl)benzoic acid], for which the IC50 was found to be 0.085 µM. On to `CN(c1ccc(Cl)cc1)c1ccc(C(=O)c2ccc([S+]([O-])c3ccccc3)c(C(=O)O)c2)cc1` (centres unmarked) [1:8, 5-{4-[(4-Chlorophenyl)(methyl)amino]benzoyl}-2-(phenylsulfinyl)benzoic acid], for which the concentration for half-maximal inhibition (IC50) is 0.082 µM. Regarding `CCCC[S+]([O-])c1ccc(C(=O)c2ccc(N(C)c3ccc(Cl)cc3)cc2)cc1C(=O)O` (centres unmarked) [1:7, 2-(1-Butylsulfinyl)-5-{4-[(4-chlorophenyl)(methyl)amino]benzoyl}benzoic acid], the IC50 amounted to 0.16 µM. Take `CN(c1ccc(Cl)cc1)c1ccc(C(=O)c2ccc(Sc3ccc(F)c(F)c3)c(C(=O)O)c2)cc1` [2:3, 5-{4-[(4-Chlorophenyl)(methyl)amino]benzoyl}-2-(3,4-difluorophenyl-sulfanyl)benzoic acid]: the IC50 is 0.051 µM. On the same count and under the same terms, the same measure for `O=C(c1ccc([S+]([O-])c2cccc(Cl)c2)c(C(=O)O)c1)c1ccc(N(CC2CC2)c2ccc(Cl)cc2)cn1` (centres unmarked) [1:18, 2-(3-Chlorophenylsulfinyl)-5-{5-[(4-chlorophenyl)cyclopropylmethylamino]-pyridine-2-carbonyl}benzoic acid]: 0.031 µM; for `CCCCCC[S+]([O-])c1ccc(C(=O)c2ncc(N(C)c3ccc(Cl)cc3)cn2)cc1C(=O)O` (centres unmarked) [Example 1:21, 5-(5-((4-Chlorophenyl)(methyl)amino)pyrimidine-2-carbonyl)-2-(1-hexylsulfinyl)-benzoic acid]: 0.054 µM; for `O=C(c1ccc(Sc2cccc(Cl)c2)c(C(=O)O)c1)c1ccc(N(CC2CC2)c2ccc(Cl)cc2)cn1` [2:18, 5-{5-[(4-Chlorophenyl)cyclopropylmethylamino]pyridine-2-carbonyl}-2-(3-chlorophenylsulfanyl)benzoic acid]: 0.046 µM.

A word on the inhibition: it is the percentage by which the read-out fell short of the control. A word on the IC50: it is the concentration that gives 50% inhibition.
